Laboratory results published in patent publication US10472356B2, “Bicyclic ketone sulfonamide compounds” (AMGEN INC., priority 2015, dated 2019).
pIC50: −log10 of the molar value.

Columns and labels:
Format in all cases: cell-based
human Nav1.7 [1] = molecular target: T1, human Nav1.7 (Homo sapiens, UniProt Q15858); assay: Nav 1.7 IWB In Vitro Assay (IonWorks Barracuda); details: HEK293 cells stably transfected with human Nav 1.7; IonWorks Barracuda population patch-clamp; cells clamped to −20 mV for 4 minutes with compound; 26th pulse; read-out: hNav1.7 IWB IC50
T1 construct: expressed in transfected cells; host or cells: HEK293
T1 sequence (Q15858 whole entry): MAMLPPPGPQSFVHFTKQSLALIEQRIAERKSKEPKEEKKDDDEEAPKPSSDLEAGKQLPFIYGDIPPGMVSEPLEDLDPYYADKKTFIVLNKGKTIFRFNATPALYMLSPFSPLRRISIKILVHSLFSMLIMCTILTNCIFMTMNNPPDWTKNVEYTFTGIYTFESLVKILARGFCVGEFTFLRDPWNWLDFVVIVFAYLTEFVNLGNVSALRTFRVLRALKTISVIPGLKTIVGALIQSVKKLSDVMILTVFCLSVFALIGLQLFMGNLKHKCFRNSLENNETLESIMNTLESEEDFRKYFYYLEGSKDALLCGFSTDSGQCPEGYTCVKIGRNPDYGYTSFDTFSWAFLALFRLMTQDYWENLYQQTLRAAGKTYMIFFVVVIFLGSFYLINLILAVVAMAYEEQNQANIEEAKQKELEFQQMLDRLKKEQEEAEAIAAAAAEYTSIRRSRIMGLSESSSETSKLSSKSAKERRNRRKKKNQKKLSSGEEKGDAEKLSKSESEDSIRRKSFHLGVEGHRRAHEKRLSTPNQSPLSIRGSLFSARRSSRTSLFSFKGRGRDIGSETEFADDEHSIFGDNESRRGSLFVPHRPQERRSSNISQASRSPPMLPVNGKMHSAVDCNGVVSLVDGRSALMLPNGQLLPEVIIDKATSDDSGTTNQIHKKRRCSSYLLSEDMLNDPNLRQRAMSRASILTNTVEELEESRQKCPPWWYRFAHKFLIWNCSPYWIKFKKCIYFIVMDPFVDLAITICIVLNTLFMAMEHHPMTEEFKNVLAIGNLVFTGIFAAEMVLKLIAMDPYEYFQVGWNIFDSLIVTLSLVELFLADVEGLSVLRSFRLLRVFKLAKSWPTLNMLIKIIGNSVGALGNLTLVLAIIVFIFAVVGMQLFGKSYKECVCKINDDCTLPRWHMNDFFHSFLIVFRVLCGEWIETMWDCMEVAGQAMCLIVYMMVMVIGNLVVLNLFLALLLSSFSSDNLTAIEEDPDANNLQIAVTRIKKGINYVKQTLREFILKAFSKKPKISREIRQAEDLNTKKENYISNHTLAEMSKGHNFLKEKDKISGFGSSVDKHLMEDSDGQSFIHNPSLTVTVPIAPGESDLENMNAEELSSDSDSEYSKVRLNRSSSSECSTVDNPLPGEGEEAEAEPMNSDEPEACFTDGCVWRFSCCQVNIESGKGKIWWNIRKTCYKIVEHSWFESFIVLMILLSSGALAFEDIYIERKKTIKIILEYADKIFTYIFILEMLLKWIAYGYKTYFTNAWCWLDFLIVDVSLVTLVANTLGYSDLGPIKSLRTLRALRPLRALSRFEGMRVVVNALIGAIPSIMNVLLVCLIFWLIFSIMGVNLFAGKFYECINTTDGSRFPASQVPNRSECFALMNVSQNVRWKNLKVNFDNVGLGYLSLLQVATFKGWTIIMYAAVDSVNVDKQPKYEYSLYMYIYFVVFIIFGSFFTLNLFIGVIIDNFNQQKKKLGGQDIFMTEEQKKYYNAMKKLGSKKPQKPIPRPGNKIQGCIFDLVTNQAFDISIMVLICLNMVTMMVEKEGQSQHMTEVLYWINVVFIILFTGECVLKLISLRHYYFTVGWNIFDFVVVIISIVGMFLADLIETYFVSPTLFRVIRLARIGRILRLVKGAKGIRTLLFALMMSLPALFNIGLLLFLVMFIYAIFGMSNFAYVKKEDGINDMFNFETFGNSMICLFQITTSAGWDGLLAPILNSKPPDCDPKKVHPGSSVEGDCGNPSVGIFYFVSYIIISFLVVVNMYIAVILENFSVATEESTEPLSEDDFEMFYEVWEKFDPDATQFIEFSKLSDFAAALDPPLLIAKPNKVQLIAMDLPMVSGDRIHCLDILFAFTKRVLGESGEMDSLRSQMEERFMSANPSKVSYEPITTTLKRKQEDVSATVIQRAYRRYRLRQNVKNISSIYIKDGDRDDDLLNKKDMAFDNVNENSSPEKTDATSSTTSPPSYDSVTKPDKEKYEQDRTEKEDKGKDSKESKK
Method in brief: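 IC50 derived from concentration-response of percent block of the 26th-pulse peak inward current, compound vs none. Protocol: stable human Nav 1.7 HEK293 cells on automated population patch clamp, held at −110 mV, 5 Hz train of 150 ms steps to −20 mV, 4 min compound exposure depolarized at −20 mV, 3 s repolarization, train repeated.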

human Nav1.7 [2] = molecular target: T1, human Nav1.7; assay: Nav 1.7 In Vitro PatchXpress (PX) Assay; details: HEK 293 cells stably transfected with human Nav1.7; PatchXpress whole cell voltage clamp; partially inactivated state (holding potential yielding 20 to 50% inactivation); read-out: hNav1.7 PX IC50
Method in brief: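 Percent inhibition of peak sodium current taken after 3 min exposure to one compound concentration, 3–5 cells each, with IC50 curve fits. Partially inactivated channels (20–50% inactivation at holding potential) in Nav1.7-HEK 293 cells, activated by 20 ms steps to −10 mV every 10 s.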

human Nav1.7 [3] = molecular target: T1, human Nav1.7; assay: Nav 1.7 IWQ In Vitro Assay (IonWorks Quattro); details: HEK293 cells stably transfected with human Nav 1.7; IonWorks Quattro population patch-clamp; 26th pulse to −20 mV, 5 Hz; cells unclamped 5 to 8 minutes with compound; read-out: hNav1.7 IWQ IC50
Experimental: Nav 1.7 or Nav 1.5 IWQ In Vitro Assay
HEK293 cells stably transfected with either human Nav 1.7 or human Nav 1.5 were recorded in population patch-clamp mode with the IonWorks® Quattro automated electrophysiology system (Molecular Devices, LLC, Sunnyvale, Calif.). Cells were voltage clamped to −110 mV for three seconds (Nav 1.7) or half a second (Nav 1.5) and sodium currents were elicited by a train of 26 depolarizations of 150 msec duration to −20 mV (Nav 1.7) or 0 mV (Nav 1.5) at a frequency of 5 Hz. Cells were then left unclamped for a period of 5 to 8 minutes while a single concentration of test compound was added. Following this compound incubation period, cells were then reclamped to −110 mV for three seconds (Nav1.7) or half a second (Nav1.5) to recover unbound channels and put through the same 26 pulse voltage protocol as above. Peak inward current during the 26th pulse to −20 mV (Nav 1.7) or 0 mV (Nav 1.5) in the presence of compound was divided by the peak inward current evoked by the 26th pulse to −20 mV (Nav1.7) or 0 mV (Nav1.5) in the absence of compound to determine percent inhibition. Concentration-response curves of percent.

| SMILES | pIC50 (human Nav1.7 [1]) | pIC50 (human Nav1.7 [2]) | pIC50 (human Nav1.7 [3]) |
| --- | --- | --- | --- |
| COc1cc(-c2cc(F)cc(Cl)c2)c(F)cc1-n1c2c(ccc1=O)CN(S(=O)(=O)Nc1ncns1)CC2 (racemic) [5-(Rac), (Rac)-1-(3′-chloro-2,5′-difluoro-5-methoxy-4-biphenylyl)-2-oxo-N-1,2,4-thiadiazol-5-yl-1,5,7,8-tetrahydro-1,6-naphthyridine-6(2H)-sulfonamide] | 8.17 | 7.26 | 8.14 |
| COc1cc(-c2cc(Cl)ccc2C)c(F)cc1-n1c2c(ccc1=O)CN(S(=O)(=O)Nc1ccon1)CC2 (racemic) [9-(Rac), (Rac)-1-(5′-chloro-2-fluoro-5-methoxy-2′-methyl-4-biphenylyl)-N-3-isoxazolyl-2-oxo-1,5,7,8-tetrahydro-1,6-naphthyridine-6(2H)-sulfonamide] | 8.27 | 7.51 | 8.34 |
| COc1cc(-c2cc(F)cc(Cl)c2)c(F)cc1-n1c2c(ccc1=O)CN(S(=O)(=O)Nc1ccc(F)cn1)CC2 (racemic) [Example 12-(Rac), (Rac)-1-(3′-chloro-2,5′-difluoro-5-methoxy-4-biphenylyl)-N-(5-fluoro-2-pyridinyl)-2-oxo-1,5,7,8-tetrahydro-1,6-naphthyridine-6(2H)-sulfonamide] | 7.04 | 6.97 | 7.09 |
| COc1cc(-c2cc(F)cc(Cl)c2)c(F)cc1-n1c2c(ccc1=O)CN(S(=O)(=O)Nc1cccc(F)n1)CC2 (racemic) [Example 13-(Rac), (Rac)-1-(3′-chloro-2,5′-difluoro-5-methoxy-4-biphenylyl)-N-(6-fluoro-2-pyridinyl)-2-oxo-1,5,7,8-tetrahydro-1,6-naphthyridine-6(2H)-sulfonamide] | 7.56 | 6.91 | 7.48 |
| COc1cc(-c2cc(F)cc(F)c2)c(F)cc1-n1c2c(ccc1=O)CN(S(=O)(=O)Nc1cccc(F)n1)CC2 (racemic) [Example 14-(Rac), (Rac)-N-(6-fluoro-2-pyridinyl)-2-oxo-1-(2,3′,5′-trifluoro-5-methoxy-4-biphenylyl)-1,5,7,8-tetrahydro-1,6-naphthyridine-6(2H)-sulfonamide] | 7.59 | 7.13 | 7.35 |
| COc1cc(-c2cc(OC)c(-n3c4c(ccc3=O)CN(S(=O)(=O)Nc3ccon3)CC4)cc2F)ccc1Cl (racemic) [Example 15-(Rac), (Rac)-1-(4′-chloro-2-fluoro-3′,5-dimethoxy-4-biphenylyl)-N-3-isoxazolyl-2-oxo-1,5,7,8-tetrahydro-1,6-naphthyridine-6(2H)-sulfonamide] | 8.09 | 7.66 | 6.92 |
| COc1cc(-c2cccc(C(F)(F)F)c2)c(F)cc1-n1c2c(ccc1=O)CN(S(=O)(=O)Nc1ccon1)CC2 (racemic) [Example 16-(Rac), (Rac)-1-(2-fluoro-5-methoxy-3′-(trifluoromethyl)-4-biphenylyl)-N-3-isoxazolyl-2-oxo-1,5,7,8-tetrahydro-1,6-naphthyridine-6(2H)-sulfonamide] | 8.28 | 7.41 | 8.33 |
| COc1cc(-c2cc(F)cc(Cl)c2)c(F)cc1-n1c2c(ccc1=O)CN(S(=O)(=O)Nc1ccon1)CC2 (racemic) [Example 18-(Rac), (Rac)-1-(3′-chloro-2,5′-difluoro-5-methoxy-4-biphenylyl)-N-3-isoxazolyl-2-oxo-1,5,7,8-tetrahydro-1,6-naphthyridine-6(2H)-sulfonamide] | 8.16 | 7.40 | 8.37 |
| COc1cc(-c2ccc(Cl)c(C)c2)c(F)cc1-n1c2c(ccc1=O)CN(S(=O)(=O)Nc1ccon1)CC2 (racemic) [Example 24-(Rac), (Rac)-1-(4′-chloro-2-fluoro-5-methoxy-3′-methyl-4-biphenylyl)-N-3-isoxazolyl-2-oxo-1,5,7,8-tetrahydro-1,6-naphthyridine-6(2H)-sulfonamide] |  | 7.13 | 8.17 |
| COc1cc(-c2cc(F)cc(F)c2)c(F)cc1-n1c2c(ccc1=O)CN(S(=O)(=O)Nc1ccon1)CC2 (single isomer, unassigned) [Example 25-P, P-N-3-isoxazolyl-2-oxo-1-(2,3′,5′-trifluoro-5-methoxy-4-biphenylyl)-1,5,7,8-tetrahydro-1,6-naphthyridine-6(2H)-sulfonamide] |  | 6.76 | 8.14 |
| COc1cc(-c2cnc(OC)c(C(F)(F)F)c2)c(F)cc1-n1c2c(ccc1=O)CN(S(=O)(=O)Nc1cccnn1)CC2 [Example 80, P-1-(5-fluoro-2-methoxy-4-(6-methoxy-5-(trifluoromethyl)pyridin-3-yl)phenyl)-2-oxo-N-(pyridazin-3-yl)-1,2,7,8-tetrahydro-1,6-naphthyridine-6(5H)-sulfonamide] | 7.86 |  | 8.27 |
| COc1cc(-c2ccc(F)c(OC(F)(F)F)c2)c(F)cc1-n1c2c(ccc1=O)CN(S(=O)(=O)Nc1cccnn1)CC2 [Example 81, P-1-(2,4′-difluoro-5-methoxy-3′-(trifluoromethoxy)-[1,1′-biphenyl]-4-yl)-2-oxo-N-(pyridazin-3-yl)-1,2,7,8-tetrahydro-1,6-naphthyridine-6(5H)-sulfonamide] | 8.07 |  | 8.41 |

Other lines, results leading:

| pIC50 (human Nav1.7 [1]) | pIC50 (human Nav1.7 [2]) | pIC50 (human Nav1.7 [3]) | SMILES |
| --- | --- | --- | --- |
| 7.59 |  | 7.81 | COc1cc(-c2ccc(OC)c(C(F)(F)F)c2)c(F)cc1-n1c2c(ccc1=O)CN(S(=O)(=O)Nc1cccnn1)CC2 [Example 82, P-1-(2-fluoro-4′,5-dimethoxy-3′-(trifluoromethyl)-[1,1′-biphenyl]-4-yl)-2-oxo-N-(pyridazin-3-yl)-1,2,7,8-tetrahydro-1,6-naphthyridine-6(5H)-sulfonamide] |
| 8.29 |  | 8.47 | COc1cc(-c2cc(OC)c(-n3c4c(ccc3=O)CN(S(=O)(=O)Nc3cccnn3)CC4)cc2F)cc(C(F)(F)F)c1 [Example 83, P-1-(2-fluoro-3′,5-dimethoxy-5′-(trifluoromethyl)-[1,1′-biphenyl]-4-yl)-2-oxo-N-(pyridazin-3-yl)-1,2,7,8-tetrahydro-1,6-naphthyridine-6(5H)-sulfonamide] |
| 7.77 |  | 8.08 | COc1cc(-c2cc(F)cc(C(F)F)c2)c(F)cc1-n1c2c(ccc1=O)CN(S(=O)(=O)Nc1cccnn1)CC2 [Example 84, P-1-(3′-(difluoromethyl)-2,5′-difluoro-5-methoxy-[1,1′-biphenyl]-4-yl)-2-oxo-N-(pyridazin-3-yl)-1,2,7,8-tetrahydro-1,6-naphthyridine-6(5H)-sulfonamide] |
| 7.76 |  | 8.37 | COc1cc(-c2ccc(F)c(C(F)F)c2)c(F)cc1-n1c2c(ccc1=O)CN(S(=O)(=O)Nc1cccnn1)CC2 [Example 85, P-1-(3′-(difluoromethyl)-2,4′-difluoro-5-methoxy-[1,1′-biphenyl]-4-yl)-2-oxo-N-(pyridazin-3-yl)-1,2,7,8-tetrahydro-1,6-naphthyridine-6(5H)-sulfonamide] |
| 7.84 |  | 8.15 | COc1cc(-c2cc(F)c(F)c(C(F)F)c2)c(F)cc1-n1c2c(ccc1=O)CN(S(=O)(=O)Nc1cccnn1)CC2 [Example 86, P-1-(3′-(difluoromethyl)-2,4′,5′-trifluoro-5-methoxy-[1,1′-biphenyl]-4-yl)-2-oxo-N-(pyridazin-3-yl)-1,2,7,8-tetrahydro-1,6-naphthyridine-6(5H)-sulfonamide] |
| 7.72 |  | 7.91 | COc1cc(-c2ccc(C(F)F)c(F)c2)c(F)cc1-n1c2c(ccc1=O)CN(S(=O)(=O)Nc1cccnn1)CC2 [Example 87, P-1-(4′-(difluoromethyl)-2,3′-difluoro-5-methoxy-[1,1′-biphenyl]-4-yl)-2-oxo-N-(pyridazin-3-yl)-1,2,7,8-tetrahydro-1,6-naphthyridine-6(5H)-sulfonamide] |
| 7.47 |  | 7.73 | COc1cc(CCC(F)(F)F)c(F)cc1-n1c2c(ccc1=O)CN(S(=O)(=O)Nc1ccon1)CC2 [Example 94, P-1-(5-fluoro-2-methoxy-4-(3,3,3-trifluoropropyl)phenyl)-N-(isoxazol-3-yl)-2-oxo-1,2,7,8-tetrahydro-1,6-naphthyridine-6(5H)-sulfonamide] |
| 7.44 |  | 7.68 | COc1cc(CCC(F)(F)F)c(F)cc1-n1c2c(ccc1=O)CN(S(=O)(=O)Nc1cccnn1)CC2 [Example 95, P-1-(5-fluoro-2-methoxy-4-(3,3,3-trifluoropropyl)phenyl)-2-oxo-N-(pyridazin-3-yl)-1,2,7,8-tetrahydro-1,6-naphthyridine-6(5H)-sulfonamide] |
